Test [1] concerns DAF-16::GFP expressing worms (strain TJ356). The test can be described thus: DAF-16 localization assay. The following applies: 300 μM, 6 hours. It counts as in vivo, Caenorhabditis elegans. The procedure:
Synchronized TJ356 worms were grown on the EV control bacteria. At the indicated ages (days 1 of adulthood), 25 worms were transferred onto daf-2 RNAi bacteria for the indicated time (6 h). […] (Molecular Probes), Invitrogen, Carlsbad, Calif., USA]. DAPI and GFP signals were visualized using a fluorescent microscope (Leica DM6000 B; Leica, Wetzlar, Germany). […] The worms were let hatched and develop on control bacteria harboring an empty vector (EV) (FIG. 1A) or on daf-2 RNAi bacteria (FIG. 1B). […] The worms were then fixed and stained with DAPI. […] Paralyzed worms were scored daily. […] The worms were placed on plates seeded with EV bacteria and exposed to 35° C. for 15 hours and survival rates were scored by counting the surviving worms. The results of a representative experiment (three repeats were performed) is presented on FIG. 3.

Test [2] has as its system CF512 worms. The test is described as follows: Heat stress assay. The format is in vivo, Caenorhabditis elegans. The settings on record: for stress resistance (survival): 300 μM, 3 hours at day 1, 35° C. for 15 hours.
Test [3] relates to Aβ worms (strain CL2006). The test is described as follows: Paralysis assay in Aβ worms. It counts as in vivo, Caenorhabditis elegans.
The test system of test [4] is Aβ. The test is described as follows: Aβ aggregation, Western blot after high-speed centrifugation. It counts as in vivo, Caenorhabditis elegans. The following applies: CL2006 worms, WB with 6E10 antibody.
Test [5] deals with CF512 worms. The test can be described thus: UV stress assay. The settings on record: sub-lethal UV dose. The format is in vivo, Caenorhabditis elegans.
For test [6], the system named is polyQ35-YFP worms. The test is described as follows: Motility assay (crawling speed). It counts as in vivo, Caenorhabditis elegans. The following applies: 600 μM daily day 1 to 11.
The subject of test [7] is Aβ. The test is described as follows: Aβ immunofluorescence in worms. The following applies: immuno-fluorescence. The format is in vivo, Caenorhabditis elegans.
The test system of test [8] is polyQ40-YFP worms. The test can be described thus: polyQ40-YFP foci count. It counts as in vivo, Caenorhabditis elegans.
The subject of test [9] is IRS1 and IRS2. The test is described as follows: IRS1/IRS2 Ser-phosphorylation and degradation, Western blot in A375 cells. Background: In western blotting, separated proteins are transferred to a membrane and probed.
In test [10] the test system is AKT. The test can be described thus: IGF1-induced AKT phosphorylation, Western blot in A375 cells. The format is cell-based, human.
The subject of test [11] is hsp-70 promoter (hsp-70p::GFP). The test can be described thus: hsp-70 promoter GFP induction after heat, fluorescent microscopy. The format is in vivo, Caenorhabditis elegans. The following applies: 600 μM, heat stress 33° C., 3 h.
The subject of test [12] is polyQ40-YFP. The test is described as follows: polyQ40-YFP aggregation (WB, high-speed pellets, native gel). The format is in vivo, Caenorhabditis elegans.
For test [13], the system named is hsp-16.2 promoter (strain CL2070). The test can be described thus: hsp-16.2 promoter GFP induction after heat, Western blot. The settings on record: CL2070 worms, 33° C. three hours. It counts as in vivo, Caenorhabditis elegans.
For test [14], the system named is DAF-16, HSF-1 and SKN-1 target genes. The test is described as follows: Real-time quantitative PCR of IIS target genes. The format is in vivo, Caenorhabditis elegans. The settings on record: CF512 worms, 600 μM, 3 hours days 1 and 2, vs control.

Structures are written as SMILES. Several values for one entry are separate records, joined by “and”; a condition that tells them apart may be missing. Equal values may be shown once.

The source of these data is patent publication US10188659B2, “IGF-1R signaling pathway inhibitors useful in the treatment of neurodegenerative diseases” (YISSUM RESEARCH DEVELOPMENT COMPANY OF THE HEBREW …, priority 2013, dated 2019).

As to `Oc1cc(CNC(=S)/C=C/c2cc(O)c(O)c(Br)c2)cc(O)c1O` [Compound 29], the “nuclear localization of DAF-16 (co-localization of DAPI and GFP signals)” value in [1] was “confirmed the nuclear localization of DAF-16”. In addition, the “stress resistance (survival)” value in [2] was “elevate stress resistance of CF512 worms”. Further, in test [3] (300 μM, soaked 3 hours days 1 and 2, then daily 25 μl), the paralysis rates result is reported as “increased in reduced rates compared to the untreated control”.
For `Oc1cc(CNC(=S)/C=C/c2ccc(O)c(O)c2Br)cc(O)c1O` [Compound 39], the “high molecular-weight Aβ aggregates” value in test [4] is given as “elevated amount of high molecular-weight Aβ aggregates”. Moreover, the “mean survival after UV radiation (days±SEM)” value in [5] was 8.76 ± 0.21 days. For the same compound, in [6], the “average crawling speed at day 11 relative to day 1 of adulthood” value is recorded as 32.9%. Moreover, in test [7], the “Aβ amounts and distribution” value was “enhanced the amount of Aβ and led to its accumulation in the central part of the animal's body”. Besides, the “stress resistance (survival)” value in [2] was “elevate stress resistance of CF512 worms”. Further, the “raise of survival rates compared to the untreated population” value in [2] (15 hours at 35° C.) amounted to 33%. In addition, the “survival rate after heat stress” value in test [2] (15 hours at 35° C.) is 72% and 71.7%. The “average number of polyQ40-YFP foci/worm” value in [8] was determined as 52.78 foci/worm. The “IRS1 and IRS2 protein levels” value in test [9] (long exposure (19 hours)) is “elimination of IRS1 and IRS2”. Further, in test [9] (short exposure (4 hours)), the “phosphorylation of IRS1 and IRS2 on serine residues” value is reported as “massive phosphorylation on serine residues”. The “AKT phosphorylation, kinetic experiment” value in test [10] is listed as “partial inhibition of AKT phosphorylation”. Besides, in test [10] (A375 cells, short and long exposures), the “IGF1-induced activation of AKT (phosphorylation on threonine 308 and serine 473)” value is on record as “abolished the IGF1-induced activation of AKT”. The “hsp-70 promoter driven GFP fluorescence” value in test [11] was “elevated GFP fluorescence levels”. The “rate of paralyzed worms at day 12” value in test [3] (600 μM compound (or daf-2 RNAi throughout), day 12 of adulthood) was found to be 29%. Moreover, the “polyQ40-YFP aggregation, YFP fluorescence on native gel” value in [12] (1% native gel) is listed as “did not exhibit elevated rates of polyQ40-YFP aggregation”. Moreover, the “aggregated polyQ40-YFP in high-speed pellets” value in test [12] (WB after high-speed centrifugation) is “no increase was seen”. Further, in test [12] (WB, GFP antibody, day 2), the “SDS resistant polyQ40-YFP aggregates, whole worm homogenates” value is given as “no such material could be detected”. Also, the “hsp-16.2 promoter driven GFP level” value was “no detectable effect” in test [13] (150 μM), “moderate effect” in test [13] (300 μM), “remarkably increased the induction of GFP” in test [13] (600 μM) and “lower effect than that of 600 μM” in [13] (900 μM). Further, the “average increase of expression of DAF-16 and SKN-1 target genes” value in test [14] was 19-37%. Besides, the “elevation of expression level of hsp-70” value in test [14] is given as “approximately 170%”.
